Test results published in ChEMBL document CHEMBL2413072, “Synthesis and in vitro anticancer studies of novel C-2 arylidene congeners of lantadenes” (2013).

What was measured:
Assay type in all cases: functional
SF-295 = test: Growth inhibition of human SF295 cells assessed as growth inhibition at 10 uM by sulforhodamine B assay; conditions: read-out: GI
CCRF-CEM = test: Growth inhibition of human CCRF-CEM cells assessed as growth inhibition at 10 uM by sulforhodamine B assay; conditions: read-out: GI
[1] = Growth inhibition of human NCI-ADR-RES cells assessed as cell growth at 10 uM by sulforhodamine B assay; conditions: read-out: Activity
HCT-116 = test: Growth inhibition of human HCT116 cells assessed as growth inhibition at 10 uM by sulforhodamine B assay; conditions: read-out: GI
DU-145 = test: Growth inhibition of human DU145 cells assessed as cell growth at 10 uM by sulforhodamine B assay; conditions: read-out: Activity
[2] = Growth inhibition of human EKVX cells assessed as growth inhibition at 10 uM by sulforhodamine B assay; conditions: read-out: GI
[3] = Growth inhibition of human EKVX cells assessed as cell growth at 10 uM by sulforhodamine B assay; conditions: read-out: Activity
HOP-62 = test: Growth inhibition of human HOP62 cells assessed as cell growth at 10 uM by sulforhodamine B assay; conditions: read-out: Activity
ACHN [4] = test: Growth inhibition of human ACHN cells assessed as cell growth at 10 uM by sulforhodamine B assay; conditions: read-out: Activity
NCI-H322M = test: Growth inhibition of human NCI-H322M cells assessed as cell growth at 10 uM by sulforhodamine B assay; conditions: read-out: Activity
SK-MEL-2 = test: Growth inhibition of human SK-MEL-2 cells assessed as growth inhibition at 10 uM by sulforhodamine B assay; conditions: read-out: GI
SNB-75 [5] = test: Growth inhibition of human SNB75 cells assessed as cell growth at 10 uM by sulforhodamine B assay; conditions: read-out: Activity
A549 [6] = test: Growth inhibition of human A549/ATCC cells assessed as growth inhibition at 10 uM by sulforhodamine B assay; conditions: read-out: GI
[7] = Growth inhibition of human NCI-ADR-RES cells assessed as growth inhibition at 10 uM by sulforhodamine B assay; conditions: read-out: GI
MDA-MB-468 = test: Growth inhibition of human MDA-MB-468 cells assessed as cell growth at 10 uM by sulforhodamine B assay; conditions: read-out: Activity
ACHN [8] = test: Growth inhibition of human ACHN cells assessed as growth inhibition at 10 uM by sulforhodamine B assay; conditions: read-out: GI
TK-10 = test: Growth inhibition of human TK10 cells assessed as growth inhibition at 10 uM by sulforhodamine B assay; conditions: read-out: GI
OVCAR-4 = test: Growth inhibition of human OVCAR4 cells assessed as growth inhibition at 10 uM by sulforhodamine B assay; conditions: read-out: GI
OVCAR-3 = test: Growth inhibition of human OVCAR3 cells assessed as cell growth at 10 uM by sulforhodamine B assay; conditions: read-out: Activity
786-0 = test: Growth inhibition of human 786-0 cells assessed as growth inhibition at 10 uM by sulforhodamine B assay; conditions: read-out: GI
[9] = Growth inhibition of human Hs 578T cells assessed as growth inhibition at 10 uM by sulforhodamine B assay; conditions: read-out: GI
COLO 205 [10] = test: Growth inhibition of human COLO205 cells assessed as cell growth at 10 uM by sulforhodamine B assay; conditions: read-out: Activity
NCI-H23 [11] = test: Growth inhibition of human NCI-H23 cells assessed as growth inhibition at 10 uM by sulforhodamine B assay; conditions: read-out: GI
NCI-H226 [12] = test: Growth inhibition of human NCI-H226 cells assessed as growth inhibition at 10 uM by sulforhodamine B assay; conditions: read-out: GI
HOP-92 = test: Growth inhibition of human HOP92 cells assessed as cell growth at 10 uM by sulforhodamine B assay; conditions: read-out: Activity
[13] = Growth inhibition of human HCC2998 cells assessed as growth inhibition at 10 uM by sulforhodamine B assay; conditions: HCC 2998, read-out: GI
HL-60(TB) = test: Growth inhibition of human HL-60(TB) cells assessed as cell growth at 10 uM by sulforhodamine B assay; conditions: read-out: Activity
SNB-19 = test: Growth inhibition of human SNB19 cells assessed as cell growth at 10 uM by sulforhodamine B assay; conditions: read-out: Activity
NCI-H23 [14] = test: Growth inhibition of human NCI-H23 cells assessed as cell growth at 10 uM by sulforhodamine B assay; conditions: read-out: Activity
U-251 = test: Growth inhibition of human U251 cells assessed as cell growth at 10 uM by sulforhodamine B assay; conditions: read-out: Activity
IGROV-1 = test: Growth inhibition of human IGROV1 cells assessed as growth inhibition at 10 uM by sulforhodamine B assay; conditions: read-out: GI
SK-MEL-28 = test: Growth inhibition of human SK-MEL-28 cells assessed as cell growth at 10 uM by sulforhodamine B assay; conditions: read-out: Activity
A498 = test: Growth inhibition of human A498 cells assessed as cell growth at 10 uM by sulforhodamine B assay; conditions: read-out: Activity
MDA-MB-231 = test: Growth inhibition of human MDA-MB-231 cells assessed as cell growth at 10 uM by sulforhodamine B assay; conditions: read-out: Activity
NCI-H522 = test: Growth inhibition of human NCI-H522 cells assessed as growth inhibition at 10 uM by sulforhodamine B assay; conditions: read-out: GI
MCF7 = test: Growth inhibition of human MCF7 cells assessed as growth inhibition at 10 uM by sulforhodamine B assay; conditions: read-out: GI
COLO 205 [15] = test: Growth inhibition of human COLO205 cells assessed as growth inhibition at 10 uM by sulforhodamine B assay; conditions: read-out: GI
SK-OV-3 [16] = test: Growth inhibition of human SKOV3 cells assessed as cell growth at 10 uM by sulforhodamine B assay; conditions: read-out: Activity
UACC-257 = test: Growth inhibition of human UACC257 cells assessed as growth inhibition at 10 uM by sulforhodamine B assay; conditions: read-out: GI
SK-OV-3 [17] = test: Growth inhibition of human SKOV3 cells assessed as growth inhibition at 10 uM by sulforhodamine B assay; conditions: read-out: GI
OVCAR-8 = test: Growth inhibition of human OVCAR8 cells assessed as growth inhibition at 10 uM by sulforhodamine B assay; conditions: read-out: GI
HT-29 = test: Growth inhibition of human HT-29 cells assessed as cell growth at 10 uM by sulforhodamine B assay; conditions: read-out: Activity
MDA-MB-435 = test: Growth inhibition of human MDA-MB-435 cells assessed as cell growth at 10 uM by sulforhodamine B assay; conditions: read-out: Activity
NCI-H226 [18] = test: Growth inhibition of human NCI-H226 cells assessed as cell growth at 10 uM by sulforhodamine B assay; conditions: read-out: Activity
SK-MEL-5 = test: Growth inhibition of human SK-MEL-5 cells assessed as cell growth at 10 uM by sulforhodamine B assay; conditions: read-out: Activity
LOX IMVI = test: Growth inhibition of human LOXIMVI cells assessed as cell growth at 10 uM by sulforhodamine B assay; conditions: read-out: Activity
SNB-75 [19] = test: Growth inhibition of human SNB75 cells assessed as growth inhibition at 10 uM by sulforhodamine B assay; conditions: read-out: GI
A549 [20] = test: Growth inhibition of human A549/ATCC cells assessed as cell growth at 10 uM by sulforhodamine B assay; conditions: read-out: Activity

CC1(C)C[C@@H](O)[C@]2(C(=O)O)CC[C@]3(C)C(=CC[C@@H]4[C@@]5(C)CC[C@H](O)C(C)(C)[C@@H]5CC[C@]43C)[C@@H]2C1
inhibition of growth at 10 µM (SF-295): < 10% | inhibition of growth at 10 µM (CCRF-CEM): 11.6% | growth at 10 µM [1]: 104% | inhibition of growth at 10 µM (HCT-116): 17.3% | growth at 10 µM (DU-145): 103% | inhibition of growth at 10 µM [2]: < 10% | growth at 10 µM [3]: 104% | growth at 10 µM (HOP-62): 98.9% | growth at 10 µM (ACHN [4]): 102% | growth at 10 µM (NCI-H322M): 99% | inhibition of growth at 10 µM (SK-MEL-2): < 10% | growth at 10 µM (SNB-75 [5]): 97.7% | inhibition of growth at 10 µM (A549 [6]): 12.4% | inhibition of growth at 10 µM [7]: < 10% | growth at 10 µM (MDA-MB-468): 111% | inhibition of growth at 10 µM (ACHN [8]): < 10% | inhibition of growth at 10 µM (TK-10): < 10% | inhibition of growth at 10 µM (OVCAR-4): < 10% | growth at 10 µM (OVCAR-3): 101% | inhibition of growth at 10 µM (786-0): 13.8% | inhibition of growth at 10 µM [9]: < 10% | growth at 10 µM (COLO 205 [10]): 109% | inhibition of growth at 10 µM (NCI-H23 [11]): < 10% | inhibition of growth at 10 µM (NCI-H226 [12]): < 10% | growth at 10 µM (HOP-92): 103% | inhibition of growth at 10 µM [13]: < 10% | growth at 10 µM (HL-60(TB)): 82% | growth at 10 µM (SNB-19): 98.2% | growth at 10 µM (NCI-H23 [14]): 102% | growth at 10 µM (U-251): 91.8% | inhibition of growth at 10 µM (IGROV-1): < 10% | growth at 10 µM (SK-MEL-28): 95.6% | growth at 10 µM (A498): 102% | growth at 10 µM (MDA-MB-231): 98.6% | inhibition of growth at 10 µM (NCI-H522): < 10% | inhibition of growth at 10 µM (MCF7): < 10% | inhibition of growth at 10 µM (COLO 205 [15]): < 10% | growth at 10 µM (SK-OV-3 [16]): 101% | inhibition of growth at 10 µM (UACC-257): < 10% | inhibition of growth at 10 µM (SK-OV-3 [17]): < 10% | inhibition of growth at 10 µM (OVCAR-8): < 10% | growth at 10 µM (HT-29): 109% | growth at 10 µM (MDA-MB-435): 116% | growth at 10 µM (NCI-H226 [18]): 107% | growth at 10 µM (SK-MEL-5): 98.7% | growth at 10 µM (LOX IMVI): 89% | inhibition of growth at 10 µM (SNB-75 [19]): < 10% | growth at 10 µM (A549 [20]): 87.5%

COc1cc(/C=C2\C[C@]3(C)[C@H]4CC=C5[C@@H]6CC(C)(C)C[C@@H](O)[C@]6(C(=O)O)CC[C@@]5(C)[C@]4(C)CC[C@H]3C(C)(C)C2=O)ccc1O
inhibition of growth at 10 µM (SF-295): 23.5% | inhibition of growth at 10 µM (CCRF-CEM): 18% | growth at 10 µM [1]: 92.7% | inhibition of growth at 10 µM (HCT-116): 15.2% | growth at 10 µM (DU-145): 107% | inhibition of growth at 10 µM [2]: 11.5% | growth at 10 µM [3]: 88.5% | growth at 10 µM (HOP-62): 96.9% | growth at 10 µM (ACHN [4]): 85.6% | growth at 10 µM (NCI-H322M): 97.5% | inhibition of growth at 10 µM (SK-MEL-2): < 10% | growth at 10 µM (SNB-75 [5]): 82.1% | inhibition of growth at 10 µM (A549 [6]): 28.2% | inhibition of growth at 10 µM [7]: < 10% | growth at 10 µM (MDA-MB-468): 103% | inhibition of growth at 10 µM (ACHN [8]): 14.4% | inhibition of growth at 10 µM (TK-10): < 10% | inhibition of growth at 10 µM (OVCAR-4): 16.2% | growth at 10 µM (OVCAR-3): 106% | inhibition of growth at 10 µM (786-0): < 10% | inhibition of growth at 10 µM [9]: < 10% | growth at 10 µM (COLO 205 [10]): 94.8% | inhibition of growth at 10 µM (NCI-H23 [11]): 15% | inhibition of growth at 10 µM (NCI-H226 [12]): < 10% | growth at 10 µM (HOP-92): 70.9% | inhibition of growth at 10 µM [13]: < 10% | growth at 10 µM (HL-60(TB)): 71.1% | growth at 10 µM (SNB-19): 97% | growth at 10 µM (NCI-H23 [14]): 85% | growth at 10 µM (U-251): 84.7% | inhibition of growth at 10 µM (IGROV-1): < 10% | growth at 10 µM (SK-MEL-28): 90.6% | growth at 10 µM (A498): 115% | growth at 10 µM (MDA-MB-231): 97.9% | inhibition of growth at 10 µM (NCI-H522): 19.2% | inhibition of growth at 10 µM (MCF7): 22.5% | inhibition of growth at 10 µM (COLO 205 [15]): < 10% | growth at 10 µM (SK-OV-3 [16]): 99.2% | inhibition of growth at 10 µM (UACC-257): < 10% | inhibition of growth at 10 µM (SK-OV-3 [17]): < 10% | inhibition of growth at 10 µM (OVCAR-8): 20.2% | growth at 10 µM (HT-29): 85.5% | growth at 10 µM (MDA-MB-435): 97.7% | growth at 10 µM (NCI-H226 [18]): 100% | growth at 10 µM (SK-MEL-5): 88.1% | growth at 10 µM (LOX IMVI): 88.4% | inhibition of growth at 10 µM (SNB-75 [19]): 17.9% | growth at 10 µM (A549 [20]): 71.8%
